Data on one compound can be found in patent publication US20150118293A1, “NOVEL DELIVERY SYSTEM FOR ANTICANCER DRUG BASED ON SHORT-CHAIN- LENGTH POLYHYDROXYALKANOATE NANOPARTICLES” (priority 2013, published 2015).

One data set has as its system cancer cells line A549. In words: in vitro cytotoxicity, MTT viability assay. Format: cell-based. To be noted: free EPT, concentration not given. As for the experimental part: The cellular toxicity of blank and EPT loaded scl-PHA nanoparticles as prepared in Example 2 were determined by using cancer cells line A549. The cells were cultured in Dulbecco's Modified Eagle's Medium (DMEM) containing 1% (v/v) Penicillin-Streptomycin (P/S, 10,000 U) antibiotic and 10% (v/v) Fetal Bovine Serum (FBS) and incubated for 24 h at 37° C. and 5% CO2. When cells grew to reach 95% confluence, they were detached from the cell culture flasks using trypsin-EDTA. The cell suspension was centrifuged at 900 rpm for 5 min and then resuspended in culture medium to get the final concentration of 1×10^5 cells/mL. About 200 μL of the cell suspensions were transferred to each well of a clear, flat bottom 96-well plate (Costar) and incubated for 24 h. On treatment day, medium was removed and fresh medium containing 4-fold serial dilutions i.e., 250.0 μg/mL (4 times), 62.5 μg/mL (8 times) and 1.6 μg/mL (12 times) of blank and EPT loaded scl-PHA nanoparticles was added. The toxicity of the nanoparticles was checked after 24, 48 and 72 h of treatment using 3-(4,5-dimethylthiazole-2-yl)-2,5-diphenyl tetrazolium (MTT) viability assay. About 5 mg of MTT was dissolved in 1 mL physiological buffer saline (PBS) solution, followed by 10 times dilution in culture medium. About 100 μL of MTT solution were added to each well after the removal of treatments and incubated for 4 h before the addition of 100 μl, of the solubilization solution (anhydrous isopropanol containing 0.1 N HCl and 10% Triton X-100). The plates were then incubated overnight and absorbance was taken at 570 nm on a microplate reader (BMG FLUOstar OPTIMA) and subtracted from the background signals at 690 nm. The cell % inhibition was calculated relative to wells containing only cell cultures without nanoparticles by using the following formula: […]
In general terms: Formazan colour is commonly taken as a measure of viable cells.

The conditions of data set [1]: neutral pH; cited from earlier work.

For `Cc1c2ccncc2c(C)c2c1[nH]c1ccccc12` [EPT, 5,11-dimethyl-6H-pyrido[4,3-b]carbazole], the “Relative % inhibition for A549 cells” value amounted to 10.02 ± 0.86% in the data set on cancer cells line A549 (24 h), 25.40 ± 1.35% with cancer cells line A549 (48 h) and 32.38% in the data set with cancer cells line A549 (72 h). The water solubility result in data set [1] is given as “approximately 0.62 mM”.
